Entries after “also recorded” stand apart in the source; their conditions may differ.
Assays:
[1] = Plasma chemistry parameters after the trial; assay type: in vivo, tumor bearing NOD-SCID mice
Procedure: Supplementary Table 1. Summary of plasma chemistry parameters metabolic analytes for three specimens (collected 72h after the last dose of 10mg/kg/72h at the end of a 21 day trial) from 3 tumor bearing NOD-SCID (NOD/LtSz-Prkdscid/j. The study criteria reflect pathological criterion used in clinical studies. Metabolic markers were quantified from freshly isolated plasma and compared to reference range.

[2] = Body and organ weights at necropsy after the trial; assay type: in vivo, NOD.CB17‐Prkdc scid/J mice
[3] = Histopathology of organs and tissues after the trial; assay type: in vivo, NOD.CB17‐Prkdc scid/J mice; set-up: key to Histopathological finding: Lungs / Histopathological finding: Thymus / Histopathological finding: Kidneys / Histopathological finding: Gallbladder / Histopathological finding: Stomach / Histopathological finding: Cecum / Histopathological finding: Colon / Histopathological finding: Mesenteric lymph node / Histopathological finding: Salivary glands / Histopathological finding: Submandibular lymph node / Histopathological finding: Uterus / Histopathological finding: Cervix / Histopathological finding: Vagina / Histopathological finding: Testes/epididymis / Histopathological finding: Prostate / Histopathological finding: Seminal vesicles / Histopathological finding: Urinary bladder / Histopathological finding: Adrenals / Histopathological finding: Ovaries / Histopathological finding: Oviducts / Histopathological finding: Trachea / Histopathological finding: Esophagus / Histopathological finding: Thyroid / Histopathological finding: Parathyroid / Histopathological finding: Mammary glands / Histopathological finding: Bones (femur, tibia, sternum, vertebrae) / Histopathological finding: Stifle joint / Histopathological finding: Skeletral muscles (hind limb, spine) / Histopathological finding: Nerves (hind limb, spine) / Histopathological finding: Spinal cord / Histopathological finding: Oral cavity / Histopathological finding: Teeth / Histopathological finding: Nasal cavity / Histopathological finding: Eyes / Histopathological finding: Harderian gland / Histopathological finding: Bones (skull) / Histopathological finding: Pituitary / Histopathological finding: Brain / Histopathological finding: Ears / Histopathological finding: Heart: N: Normal
From the text: At the end of the intervention trial, female and male NOD.CB17‐Prkdc scid/J mice bearing subcutaneous Caki‐1 tumors were euthanized, blood was collected by intracardiac puncture and the carcasses were perfused with 4% PFA. Lung, kidney, heart, spleen, lymphatic tissue were collected, mounted in paraffin, sectioned and stained by Hemotoxilyn & Eosin. Samples were imaged at 20× under light microscope for analysis.

xenograft Caki‐1 tumors = test: Xenograft renal cancer intervention (efficacy) trial; assay type: in vivo, NOD.CB17‐Prkdc SCID/J mice; conditions: 10 mg/kg/72h ip
From the text: Tissue samples were processed as described above and analyzed for Ru and Au content using ICP‐MS
Percent of change in tumor burden in a cohort of 3 females and 3 males NOD.CB17‐Prkdc scid/J mice inoculated subcutaneously with 5 × 10^6 Caki‐1 cells. The treatment started when tumors were palpable (~5 mm diameter). […] (A) Representative histological samples of tumors resected from each treatment group.

[4] = plasma 72h after last dose of 10mg/kg/72h, 21 day trial
[5] = 21 day course once/72h, mean and SEM, n = 3
[6] = Supplementary Table 3, end of trial

[Cl2(p‐cymene)Ru(μ‐dppm)Au(IMes)]ClO4 [RANCE‐1]
Clinical chemistry, treated vs control animals ([1]; end of trial): no differences | Kidney health indicators ([1]; end of trial): within normal values | DBIL [1, 4]: 0.033 mg/dL | GGT [1, 4]: 0 U/L | IBIL [1, 4]: 0.2 mg/dL | TCO2 [1, 4]: 18 mEq/L | Anion Gap ([1]; plasma 72h after last dose of 10mg/kg/72h, 21 day trial, marked *▴): 37.63 | CREA ([1]; plasma 72h after last dose of 10mg/kg/72h, 21 day trial, reference range 0.2-0.5): 0.117 mg/dL | TBIL ([1]; plasma 72h after last dose of 10mg/kg/72h, 21 day trial, reference range 0.2-0.6): 0.23 mg/dL | GLOB ([1]; plasma 72h after last dose of 10mg/kg/72h, 21 day trial, reference range 1.7-2.2): 2.63 g/dL | ALB ([1]; plasma 72h after last dose of 10mg/kg/72h, 21 day trial, reference range 2.4-4.3): 2.57 g/dL | ALT ([1]; plasma 72h after last dose of 10mg/kg/72h, 21 day trial, reference range 27-195): 170.66 U/L | AST ([1]; plasma 72h after last dose of 10mg/kg/72h, 21 day trial, reference range 54-77): 394.67 U/L | CHOL ([1]; plasma 72h after last dose of 10mg/kg/72h, 21 day trial, reference range 55-169): 87.67 mg/dL | TRIG ([1]; plasma 72h after last dose of 10mg/kg/72h, 21 day trial, reference range 67-289, marked *▾): 116 mg/dL | ALP ([1]; plasma 72h after last dose of 10mg/kg/72h, 21 day trial, reference range 105-370, marked *▾): 39.33 U/L | Cl ([1]; plasma 72h after last dose of 10mg/kg/72h, 21 day trial, reference range 111-134): 106 mEq/L | GLU ([1]; plasma 72h after last dose of 10mg/kg/72h, 21 day trial, reference range 172-372, marked *▾): 165 mg/dL | Average weight: Average Kidney [2, 5]: 0.17 ± 0.06 g | Average weight: Body [2, 5]: 21.31 ± 5.1 g | Average weight: Heart [2, 5]: 0.11 ± 0.05 g | Average weight: Liver [2, 5]: 1.15 ± 0.37 g | Average weight: Spleen [2, 5]: 0.04 ± 0.017 g | Body weight [2, 6]: 18.731 g | Heart weight [2, 6]: 0.078 g | Left Kidney weight [2, 6]: 0.148 g | Liver weight [2, 6]: 0.974 g | Right Kidney weight [2, 6]: 0.140 g | Spleen weight [2, 6]: 0.035 g | Total body weight or organ weight, treated vs control mice ([2]; end of the trial): no notable difference | Histological changes in liver, spleen, or kidney tissue ([3]; H&E, end of the 21 day efficacy trial): does not induce histological changes | Histopathological finding: Adrenals ([3]; end of 21 day trial): N | Histopathological finding: Bone marrow (femur, tibia, sternum, vertebrae) ([3]; end of 21 day trial): Moderate diffuse granulocytic hyperplasia; Moderate diffused Erythroid hypoplasia. | Histopathological finding: Bones (femur, tibia, sternum, vertebrae) ([3]; end of 21 day trial): N | Histopathological finding: Bones (skull) ([3]; end of 21 day trial): N | Histopathological finding: Brain ([3]; end of 21 day trial): N | Histopathological finding: Cecum ([3]; end of 21 day trial): N | Histopathological finding: Cervix ([3]; end of 21 day trial): N | Histopathological finding: Colon ([3]; end of 21 day trial): N | Histopathological finding: Duodenum, jejunum, ileum ([3]; end of 21 day trial): Mild peritonitis and serositis, neutrophilic and histiocytic, multifocal. | Histopathological finding: Ears ([3]; end of 21 day trial): N | Histopathological finding: Esophagus ([3]; end of 21 day trial): N | Histopathological finding: Eyes ([3]; end of 21 day trial): N | Histopathological finding: Gallbladder ([3]; end of 21 day trial): N | Histopathological finding: Harderian gland ([3]; end of 21 day trial): N | Histopathological finding: Heart ([3]; end of 21 day trial): N | Histopathological finding: Kidneys ([3]; end of 21 day trial): N | Histopathological finding: Liver ([3]; end of 21 day trial): Minimal extramedullary hematopoiesis. Minimal hepatocyte hypertrophy. Mild vacuolar change (microvesicular) | Histopathological finding: Lungs ([3]; end of 21 day trial): N | Histopathological finding: Mammary glands ([3]; end of 21 day trial): N | Histopathological finding: Mesenteric lymph node ([3]; end of 21 day trial): N | Histopathological finding: Nasal cavity ([3]; end of 21 day trial): N | Histopathological finding: Nerves (hind limb, spine) ([3]; end of 21 day trial): N | Histopathological finding: Oral cavity ([3]; end of 21 day trial): N | Histopathological finding: Ovaries ([3]; end of 21 day trial): N | Histopathological finding: Oviducts ([3]; end of 21 day trial): N | Histopathological finding: Pancreas ([3]; end of 21 day trial): Minimal peritonitis, neutrophilic and histiocytic, multifocal | Histopathological finding: Parathyroid ([3]; end of 21 day trial): N | Histopathological finding: Pituitary ([3]; end of 21 day trial): N | Histopathological finding: Prostate ([3]; end of 21 day trial): N | Histopathological finding: Salivary glands ([3]; end of 21 day trial): N | Histopathological finding: Seminal vesicles ([3]; end of 21 day trial): N | Histopathological finding: Skeletral muscles (hind limb, spine) ([3]; end of 21 day trial): N | Histopathological finding: Spinal cord ([3]; end of 21 day trial): N | Histopathological finding: Spleen ([3]; end of 21 day trial): Mild increase in extramedullary hematopoiesis with granulocyte hyperplasia. | Histopathological finding: Stifle joint ([3]; end of 21 day trial): N | Histopathological finding: Stomach ([3]; end of 21 day trial): N | Histopathological finding: Submandibular lymph node ([3]; end of 21 day trial): N | Histopathological finding: Teeth ([3]; end of 21 day trial): N | Histopathological finding: Testes/epididymis ([3]; end of 21 day trial): N | Histopathological finding: Thymus ([3]; end of 21 day trial): N | Histopathological finding: Thyroid ([3]; end of 21 day trial): N | Histopathological finding: Trachea ([3]; end of 21 day trial): N | Histopathological finding: Urinary bladder ([3]; end of 21 day trial): N | Histopathological finding: Uterus ([3]; end of 21 day trial): N | Histopathological finding: Vagina ([3]; end of 21 day trial): N | Adverse effects / pathological complications on histological evaluation ([3]; forty‐seven organ and tissue types, after 21 days of treatment): no signs of pathological complications; also recorded: no significant adverse effects | Weight and well‐being during the trial (xenograft Caki‐1 tumors; 21 days): no significant change in weight or any decline in the well‐being | Tumor burden after treatment (xenograft Caki‐1 tumors; 21 days of treatment, total of 7 doses): no change in tumor burden

— article PMC6675714 (Cancer Medicine, 2019)
